Biological target: T1, DβH (Homo sapiens, UniProt P09172)
T1 construct: reaction mixture (total volume 500 μl) contained: cellular homogenate (75 μg total protein); host or cells: SK-N-SH cell homogenate
T1 sequence (P09172 1-617): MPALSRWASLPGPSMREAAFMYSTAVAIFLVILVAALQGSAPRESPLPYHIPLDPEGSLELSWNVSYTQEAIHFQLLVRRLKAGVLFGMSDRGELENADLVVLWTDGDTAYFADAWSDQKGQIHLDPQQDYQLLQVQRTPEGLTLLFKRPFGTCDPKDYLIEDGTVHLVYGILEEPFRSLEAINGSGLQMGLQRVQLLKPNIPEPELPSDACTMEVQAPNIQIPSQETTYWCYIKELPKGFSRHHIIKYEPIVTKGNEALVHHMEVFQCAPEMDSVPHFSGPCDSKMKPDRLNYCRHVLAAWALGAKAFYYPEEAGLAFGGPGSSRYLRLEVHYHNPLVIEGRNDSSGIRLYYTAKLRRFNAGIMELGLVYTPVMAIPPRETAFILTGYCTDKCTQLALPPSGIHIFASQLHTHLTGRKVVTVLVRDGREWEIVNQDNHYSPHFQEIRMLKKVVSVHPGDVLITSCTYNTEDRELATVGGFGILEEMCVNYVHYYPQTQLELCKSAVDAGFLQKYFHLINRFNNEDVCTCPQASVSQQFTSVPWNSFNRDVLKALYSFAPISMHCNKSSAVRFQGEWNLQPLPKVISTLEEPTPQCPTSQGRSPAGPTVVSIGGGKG
Test: DβH inhibition cell assay (SK-N-SH cellular homogenates, tyramine to octopamine)
Type: biochemical
Conditions: SK-N-SH cell homogenate; for remaining activity at 0.1 µM: inhibitor 0.1 μM, read-out: DβH activity in % of Ctrl (0.1 μM); for remaining activity at 1 µM: inhibitor 1 μM, read-out: DβH activity in % of Ctrl (1 μM); for remaining activity at 10 µM: inhibitor 10 μM, read-out: DβH activity in % of Ctrl (10 μM)
Protocol: The ability of a compound to inhibit DβH activity may be assessed using the following cell assay. […] . […] Fetal bovine serum was removed from cells for 4 h prior to collection.
For the preparation of cellular homogenates, media was removed and cell monolayers were washed with 50 mM Tris-HCl pH 7.4. Cells were subsequently scrapped off the flasks and were resuspended in 50 mM Tris pH 7.4. Cell suspensions were homogenized with SilentCrusher M (Heidolph) for a short stroke and resultant homogenates were aliquoted and stored frozen at −80° C.
Total protein was quantified in cellular homogenates with BioRad Protein Assay (BioRad) using a standard curve of BSA (50-250 μg/mL).
DβH activity was measured by a modification of the method of Nagatsu and Udenfriend (Nagatsu, T. and S. Udenfriend: “Photometric assay of dopamine-hydroxylase activity in human blood.” Clin. Chem. 18(9): 980-3, 1972) which is based on the enzymatic hydroxylation of tyramine into octopamine. The octopamine formed is subsequently oxidized to p-hydroxybenzaldehyde and measured by spectrophotometry. In brief, reaction mixture (total volume 500 μl) contained: cellular homogenate (75 μg total protein) sodium acetate pH 5.0 (200 mM), NEM (30 mM), CuSO4 (5 μM), catalase aqueous solution (0.5 mg/mL), pargyline-HCl (1 mM), sodium fumarate (10 mM), ascorbic acid (10 mM), inhibitor or vehicle and tyramine (25 mM). After a 10 min pre-incubation period at 37° C., the reaction was initiated by the addition of tyramine. Reaction was carried out for 45 min at 37° C. before termination with 50 μl PCA (2 M).
Samples were centrifuged for 3 min at 16100 g and supernatants were subjected to solid phase extraction. Solid phase extraction was performed using either SPE cartridges ISOLUTE SCX-3 (100 mg, 1 mL) or SPE 2 mL fixed 96 well plates ISOLUTE SCX-3 (100 mg) previously equilibrated with MilliQ water. Columns/plates were centrifuged at 150 g for 2 min. Eluate was discarded and matrix was washed with 1 mL of MilliQ water after which octopamine was eluted with 2×0.25 mL ammonium hydroxide (4 M). The oxidation of octopamine to p-hydroxybenzaldehyde was carried out for 6 min with 100 μl sodium periodate (2%) and was stopped with 100 μl sodium metabisulfite (10%). Absorbance was measured at 330 nm on a Spectramax microplate reader (Molecular Devices, Sunnyvale, Calif.). All enzymatic reactions were performed in duplicate. Results are reported in the table below as activity in % of control at the inhibitor concentration tested.

| SMILES | remaining activity at 0.1 µM | remaining activity at 1 µM | remaining activity at 10 µM |
| --- | --- | --- | --- |
| NC(=S)N1CCC(c2ccc(F)cc2)C1 (stereo not drawn) [Example 3, 3-(4-Fluorophenyl)pyrrolidine-1-carbothioamide] | 89% | 53.8% | 3.9% |
| NC(=S)N1CCCC(c2ccccc2)C1 (stereo not drawn) [Example 4, 3-phenylpiperidine-1-carbothioamide] | – | – | 18.6% |
| NC(=S)N1CCC(c2ccc(F)cc2F)C1 (stereo not drawn) [Example 5, 3-(2,4-difluorophenyl)pyrrolidine-1-carbothioamide] | 83.2% | – | 0.8% |
| NC(=S)N1CC[C@@H](c2ccccc2)C1 [Example 6, (S)-3-phenylpyrrolidine-1-carbothioamide] | 97.6% | 50.3% | 3.3% |
| NC(=S)N1CC[C@H](c2ccccc2)C1 [Example 11, (R)-3-phenylpyrrolidine-1-carbothioamide] | 86.4% | 31.4% | 1.5% |
| Cc1ccccc1C1CCN(C(N)=S)C1 (stereo not drawn) [Example 13, 3-o-tolylpyrrolidine-1-carbothioamide] | – | – | 7.2% |
| Cc1cccc(C2CCN(C(N)=S)C2)c1 (stereo not drawn) [Example 14, 3-m-tolylpyrrolidine-1-carbothioamide] | – | – | 13.1% |
| NC(=S)N1CCC(c2ccoc2)C1 (stereo not drawn) [Example 16, 3-(furan-3-yl)pyrrolidine-1-carbothioamide] | – | 55.5% | – |
| NC(=S)N1CCC(c2cc(F)ccc2F)C1 (stereo not drawn) [Example 18, 3-(2,5-difluorophenyl)pyrrolidine-1-carbothioamide] | 57% | 6.4% | – |
| NC(=S)N1CCC(c2cc(F)c(F)cc2F)C1 (stereo not drawn) [Example 19, 3-(2,4,5-trifluorophenyl)pyrrolidine-1-carbothioamide] | – | 33.4% | – |
| NC(=S)N1CCC(c2ccc(F)c(F)c2)C1 (stereo not drawn) [Example 20, 3-(3,4-difluorophenyl)pyrrolidine-1-carbothioamide] | – | 44.8% | – |
| NC(=S)N1CC[C@@H](c2c(F)cc(F)cc2F)C1 [Example 21, (S)-3-(2,4,6-trifluorophenyl)pyrrolidine-1-carbothioamide] | – | 17.5% | – |
| NC(=S)N1CCC(c2ccc(F)c(F)c2F)C1 (stereo not drawn) [Example 22, 3-(2,3,4-trifluorophenyl)pyrrolidine-1-carbothioamide] | – | 27.4% | – |
| NC(=S)N1C[C@@H]2C[C@]2(c2cccs2)C1 [Example 28, (1R,5R)-1-(thiophen-2-yl)-3-azabicyclo[3.1.0]hexane-3-carbothioamide] | 0.2% | 3.3% | – |
| NC(=S)N1CCC(c2c(F)c(F)c(F)c(F)c2F)C1 (stereo not drawn) [Example 29, 3-(perfluorophenyl)pyrrolidine-1-carbothioamide] | 26.9% | – | – |
| CNC(=S)N1CCC(c2c(F)c(F)cc(F)c2F)C1 (stereo not drawn) [Example 33, N-methyl-3-(2,3,5,6-tetrafluorophenyl)pyrrolidine-1-carbothioamide] | 11.8% | 1% | – |

| SMILES | remaining activity at 0.1 µM | remaining activity at 1 µM | remaining activity at 10 µM |
| --- | --- | --- | --- |
| NC(=S)N1C[C@H]2C[C@@]2(c2cc(F)cc(F)c2)C1 [Example 35, (1R,5S)-1-(3,5-difluorophenyl)-3-azabicyclo[3.1.0]hexane-3-carbothioamide] | 95% | 34.3% | 0% |
| NC(=S)N1C[C@@H]2C[C@]2(c2cc(F)cc(F)c2)C1 [Example 36, (1S,5R)-1-(3,5-difluorophenyl)-3-azabicyclo[3.1.0]hexane-3-carbothioamide] | 4% | 0% | – |
| CCCNC(=S)N1C[C@@H]2C[C@]2(c2cc(F)cc(F)c2)C1 [Example 39, (1S,5R)-1-(3,5-Difluorophenyl)-N-propyl-3-azabicyclo[3.1.0]hexane-3-carbothioamide] | 40.4% | 0.3% | – |
| Fc1ccc(F)c(C23CC2CN(C(=S)NCCS)C3)c1 (stereo not drawn) [Example 40, 1-(2,5-difluorophenyl)-N-(2-mercaptoethyl)-3-azabicyclo[3.1.0]hexane-3-carbothioamide] | 87.9% | – | – |
| CNC(=S)N1C[C@@]2(c3cc(F)cc(F)c3)C[C@H]2C1=O [Example 41, (1S,5R)-1-(3,5-difluorophenyl)-N-methyl-4-oxo-3-azabicyclo[3.1.0]hexane-3-carbothioamide] | 29.8% | 0% | – |
| S=C1NCC2CC(c3ccccc3)CN12 (stereo not drawn) [Example 44, 6-Phenyltetrahydro-1H-pyrrolo[1,2-c]imidazole-3(2H)-thione] | – | 70.9% | 13.7% |
| NNC(=S)N1CC2CC2(c2cc(F)cc(F)c2)C1 (stereo not drawn) [Example 45, 1-(3,5-Difluorophenyl)-3-azabicyclo[3.1.0]hexane-3-carbothiohydrazide] | – | 29.1% | – |
| CN(C)C(=S)N1CC2CC2(c2cc(F)cc(F)c2)C1 (stereo not drawn) [Example 46, 1-(3,5-Difluorophenyl)-N,N-dimethyl-3-azabicyclo[3.1.0]hexane-3-carbothioamide] | – | 31.6% | – |
| N#CCNC(=S)N1CC2CC2(c2cc(F)ccc2F)C1 (stereo not drawn) [Example 47, N-(cyanomethyl)-1-(2,5-difluorophenyl)-3-azabicyclo[3.1.0]hexane-3-carbothioamide] | – | 45.3% | – |
| CNC(=S)N1C=CC(c2cc(F)cc(F)c2)C1 (stereo not drawn) [Example 48, 3-(3,5-Difluorophenyl)-N-methyl-2,3-dihydro-1H-pyrrole-1-carbothioamide] | – | 43% | – |
| Fc1cc(F)cc([C@]23C[C@H]2c2n[nH]c(=S)n2C3)c1 [Example 60, (5aS,6aR)-5a-(3,5-difluorophenyl)-5,5a,6,6a-tetrahydrocyclopropa[3,4]pyrrolo[2,1-c][1,2,4]triazole-3(2H)-thione] | – | 60.2% | – |
| Fc1cc(F)c(F)c([C@@H]2Cc3c[nH]c(=S)n3C2)c1F [Example 61, (S)-6-(2,3,5,6-tetrafluorophenyl)-6,7-dihydro-2H-pyrrolo[1,2-c]imidazole-3(5H)-thione] | 52.2% | 8.4% | – |
| Fc1cc(F)c(F)c([C@H]2Cc3c[nH]c(=S)n3C2)c1F [Example 62, (R)-6-(2,3,5,6-tetrafluorophenyl)-6,7-dihydro-2H-pyrrolo[1,2-c]imidazole-3(5H)-thione] | 43.1% | 9.8% | – |
| Fc1cc(F)c(F)c([C@]23C[C@H]2c2c[nH]c(=S)n2C3)c1 [Example 63, (5aS,6aR)-5a-(2,3,5-trifluorophenyl)-5,5a,6,6a-tetrahydrocyclopropa[3,4]pyrrolo[1,2-c]imidazole-3 (2H)-thione] | – | 13.9% | – |
| Fc1cccc(F)c1[C@]12C[C@H]1c1c[nH]c(=S)n1C2 [Example 64, (5aS,6aR)-5a-(2,6-difluorophenyl)-5,5a,6,6a-tetrahydrocyclopropa[3,4]pyrrolo[1,2-c]imidazole-3(2H)-thione] | 39.9% | 7.2% | – |
| Fc1cccc(F)c1[C@@]12C[C@@H]1c1c[nH]c(=S)n1C2 [Example 65, (5aR,6aS)-5a-(2,6-difluorophenyl)-5,5a,6,6a-tetrahydrocyclopropa[3,4]pyrrolo[1,2-c]imidazole-3(2H)-thione] | – | 17.9% | – |

Source: patent US10975083B2, “Blood-brain barrier-penetrant dopamine-β-hydroxylase inhibitors” (BIAL—PORTELA & Cᵃ, S.A., priority 2016, dated 2021)
